The subject of test [1] is pS2, cyclin D1, c-Myc, SP-1, E2F1, PgR. Kind of test: Quantitative RT-PCR of ERα target genes, MCF-7. Type of test: cell-based, human.
Another test has as its system KPL3 cells. Kind of test: E2-independent cell proliferation, KPL-3C. It counts as cell-based, human. To be noted: 10 μM every 24 hours, at 48 hours. The method, then: FIG. 16 is a diagram illustrating the influence of the ERAP1-peptide on proliferation of E2-independent breast cancer cells. […] Each of the cells was treated with 10 μM ERAP1-peptide for 24 hours (MCF-7), for 48 hours (KPL-3C) or for 96 hours (ZR-75-1 and T47D).
MCF-7 cells or ZR-75-1 cells were seeded in 2×10^4/well, and KPL-3C cells were seeded in 1×10^4/well on a 48-well plate, and stood in a CO2 incubator for 24 hours. Then, for MCF-7 cells, the culture medium was exchanged with DMEM/F12 culture medium containing 10% FBS (Nichirei Biosciences, Tokyo, Japan), 1% antibiotic/antimycotic solution (Invitrogen), 0.1 mM NEAA48 (invitrogen), 1 mM sodium pyruvate and 10 μg/ml insulin (Sigma, St. Louis, Mo., USA) and not containing phenol red, and the cells were further pre-cultured for 24 hours. On the other hand, for ZR-75-1 cells and KPL-3C cells, the culture media were exchanged with RPMI culture media containing 10% FBS and 1% antibiotic/antimycotic solution and not containing phenol red, and the cells were further pre-cultured for 24 hours. The supernatant was removed, and then 200 μl of the ERAP1-peptide in each concentration or tamoxifen as a positive control was added, respectively and the mixture was reacted for 24 hours. […] Then, 100 μl from each well was moved to a 96-well plate, and the absorbance at 450 nm was measured with a microplate reader.

In test [2] the test system is PHB2/REA (Ser39) phosphorylation. The test is described as follows: Ser39 phosphorylation of PHB2/REA, MCF-7. Type of test: cell-based, human. As to conditions: 10 μM. The method, then: FIG. 26-1 is a diagram illustrating the results of evaluations for the phosphorylation in nuclear-translocated Ser39 of PHB2/REA. […] MCF-7 cells were treated with 10 μM ERAP1-peptide. Then, immediately, the cells were stimulated with 10 nM E2 for 24 hours. The cells were fractionated into cytoplasm and nuclear fractions by specific gravity centrifugation. Then, each fraction was immunoprecipitated with anti-PHB2/REA antibody. Then, the cells were lysed. Then, the immunoprecipitated protein and the cell lysate were subjected to immunoblotting analysis with the antibodies shown in the figure. […] Then, immediately, the cells were temporally stimulated with 10 nM E2. Each cell lysate was subjected to immunoblotting analysis with an anti-PHB2/REA antibody and an anti-phosphorylation PHB2/REA (S39) antibody. […] MCF-7 cells were treated with the ERAP1-peptide and λ-phosphatase (400 U) in the presence of 10 nM E2 for 24 hours. After the immobilization, the cells were subjected to immunofluorescent staring. […]
MCF-7 cells were seeded in an 8-well chamber (Laboratory-Tek II Chamber Slide System, Nalgen Nunc International, Naperville, Ill., USA) in 5×10^4 cells/well, and cultured under estrogen-free condition for 24 hours. […] The fluorescence image was obtained under Olympus IX71 microscope (Tokyo, Japan).

In another test the test system is Tam-R MCF-7 tumor. The test is described as follows: In vivo antitumor effect, Tam-R MCF-7 orthotopic transplant. On the set-up: species or system BALB/c nude mouse. As to conditions: intraperitoneal every day, E2 6 μg/day, day 21. The text has this:
FIG. 27 is a diagram illustrating the inhibition effect of the ERAP1-peptide on tumor proliferation in a mouse orthotopically transplanted with human breast cancer. […] KPL-3 cells were subcutaneously transplanted into the breast fat body of a BALB/c nude mouse. The treatment test (5 individuals/group) was initiated (day 0) when the volume of the tumor reached about 50-80 mm^3 in the absence of E2. To a cancerous mouse orthotopically transplanted with KPL-3C tumor, the ERAP1-peptide (Peptide: 14 mg/kg) or the ERAP1-scramble peptide (scrPeptide: 14 mg/kg) was administered every day by intraperitoneal injection. At the same time, E2 (6 μg/day) was administered subcutaneously every day. On day 14, the mouse was euthanatized, and the tumor was removed, and phosphorylation of PHB2/REA (S39) in each tumor was evaluated with immunoblotting analysis. […] The tamoxifen-resistant MCF7-cells (Tam-R MCF-7) were subcutaneously transplanted into the breast fat body of a BALB/c nude mouse, and the treatment test (5 individuals/group) was initiated (day 0) when the volume of the tumor reached about 50-80 mm^3 in the presence of tamoxifen (37 ng/day, 1.85 μg/kg). To a cancerous mouse orthotopically transplanted with Tam-R MCF-7 tumor, the ERAP1-peptide (Peptide: 3.5, 7 and 14 mg/kg) or the ERAP1-scramble peptide (scrPeptide: 14 mg/kg) was administered every day by intraperitoneal injection. […]

In the case of `CSCC[C@H](NC(=O)[C@H](CCC(N)=O)NC(=O)[C@H](CCCNC(=N)N)NC(=O)[C@H](CCCNC(=N)N)NC(=O)[C@H](CCCNC(=N)N)NC(=O)[C@H](CCCNC(=N)N)NC(=O)[C@H](CCCNC(=N)N)NC(=O)[C@H](CCCNC(=N)N)NC(=O)[C@H](CCCNC(=N)N)NC(=O)[C@H](CCCNC(=N)N)NC(=O)[C@H](CCCNC(=N)N)NC(=O)[C@H](CCCNC(=N)N)NC(=O)[C@@H](N)CCCNC(=N)N)C(=O)N[C@@H](CC(C)C)C(=O)N[C@@H](CO)C(=O)N[C@@H](CC(=O)O)C(=O)N[C@@H](CC(C)C)C(=O)N[C@H](C(=O)N[C@@H](CC(C)C)C(=O)N[C@@H](CCC(N)=O)C(=O)N[C@@H](CC(C)C)C(=O)N[C@@H](CCCNC(=N)N)C(=O)N[C@@H](CCC(N)=O)C(=O)N[C@@H](CCCNC(=N)N)C(=O)O)[C@@H](C)O` [ERAP1-peptide], the “expression of ERα target genes” value in test [1] (after 24 hours) is given as “expression of any of the genes was remarkably suppressed”. For the same compound, in test [1] (after addition of the peptide), the “time at which significant expression suppression effect was first recognized” value was found to be 6 h. Also, the “cell proliferation in the absence of E2” value in the test with KPL3 cells is reported as “significant cell proliferation suppression effect”. Besides, in test [2] (10 nM E2), the “E2-dependent Ser phosphorylation of PHB2/REA, successive change” value is listed as “recognized continuously from 1 hour to 24 hours”. Moreover, in test [2] (10 nM E2 24 hours), the “phosphorylation of Ser39 of nuclear-translocated PHB2/REA” value is listed as “recognized for the phosphorylation of Ser39”. The “antitumor effect (tumor volume)” value in the test on Tam-R MCF-7 tumor is “The antitumor effect was recognized”.
